Patent US10865384B2, “2,4,5-tri-substituted azole-based casein kinase 1 inhibitors as inducers for cardiomyogenesis” (AGENCY FOR SCIENCE, TECHNOLOGY AND RESEARCH, priority 2014, dated 2020)
Like-named read-outs stand apart in the source and are kept apart here.

Key:
CK1δ = CK1δ (Homo sapiens (Human), UniProt P48730); experiment: LanthaScreen Eu kinase binding assay, CK1δ
CK1ϵ = CK1ϵ (Homo sapiens (Human), UniProt P49674); experiment: LanthaScreen Eu kinase binding assay, CK1ϵ
p38α MAPK = p38α MAPK (Homo sapiens (Human), UniProt Q16539); experiment: HitHunter p38 MAP kinase binding assay; settings: read-out: p38α MAPK IC50 ± SEM
hESC3 Nkx2.5eGFP/w cells = experiment: Differentiation in 96-U bottom ultra-low attachment well plates, GFP area imaging; assay type: cell-based, human; settings: 5 μM; for Average GFP %: after CHIR99021, read on day 14, GFP area over embryoid body size; for Average GFP μm^2 / Average Area μm^2: day 14; for Average Area μm^2: embryoid body size; for Cardiogenic properties: at specific time course (induction day 2 or 3)

Chain of p38α MAPK (Q16539 whole entry, looked up): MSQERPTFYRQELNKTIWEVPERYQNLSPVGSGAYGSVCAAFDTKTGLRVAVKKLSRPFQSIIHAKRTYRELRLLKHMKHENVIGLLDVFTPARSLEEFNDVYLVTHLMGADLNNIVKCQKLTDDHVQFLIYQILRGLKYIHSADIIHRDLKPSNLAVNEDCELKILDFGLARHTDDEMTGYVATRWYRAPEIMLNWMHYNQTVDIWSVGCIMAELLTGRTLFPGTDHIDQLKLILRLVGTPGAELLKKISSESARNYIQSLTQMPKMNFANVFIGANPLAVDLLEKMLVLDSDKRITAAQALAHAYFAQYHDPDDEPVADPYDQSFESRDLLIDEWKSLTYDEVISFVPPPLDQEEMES
Chain of CK1ϵ (P49674 whole entry): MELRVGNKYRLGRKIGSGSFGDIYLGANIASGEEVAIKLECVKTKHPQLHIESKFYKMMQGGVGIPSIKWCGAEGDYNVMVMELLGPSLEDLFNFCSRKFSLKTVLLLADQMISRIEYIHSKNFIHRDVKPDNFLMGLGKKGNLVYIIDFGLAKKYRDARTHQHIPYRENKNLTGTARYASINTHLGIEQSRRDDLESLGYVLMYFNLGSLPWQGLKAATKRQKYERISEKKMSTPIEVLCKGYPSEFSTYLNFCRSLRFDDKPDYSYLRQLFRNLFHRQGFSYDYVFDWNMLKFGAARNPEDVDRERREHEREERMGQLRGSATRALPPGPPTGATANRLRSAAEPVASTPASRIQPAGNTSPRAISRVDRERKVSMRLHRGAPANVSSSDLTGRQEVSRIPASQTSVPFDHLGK
Chain of CK1δ (P48730 whole entry): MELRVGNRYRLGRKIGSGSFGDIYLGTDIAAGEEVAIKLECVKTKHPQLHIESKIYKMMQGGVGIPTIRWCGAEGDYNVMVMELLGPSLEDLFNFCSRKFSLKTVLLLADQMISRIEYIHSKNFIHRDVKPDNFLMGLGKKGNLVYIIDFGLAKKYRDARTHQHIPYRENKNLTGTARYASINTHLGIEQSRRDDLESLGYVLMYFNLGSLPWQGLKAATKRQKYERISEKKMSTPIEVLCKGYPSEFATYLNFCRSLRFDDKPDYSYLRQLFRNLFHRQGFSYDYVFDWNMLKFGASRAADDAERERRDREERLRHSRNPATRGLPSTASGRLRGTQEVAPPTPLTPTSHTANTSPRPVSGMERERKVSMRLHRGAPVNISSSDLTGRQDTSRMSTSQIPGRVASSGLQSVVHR

Row | Structure (SMILES) | Average GFP % (hESC3 Nkx2.5eGFP/w cells; Induction Day 2) | Average GFP μm^2 (hESC3 Nkx2.5eGFP/w cells; Induction Day 2) | Average Area μm^2 (hESC3 Nkx2.5eGFP/w cells; Induction Day 2) | Average GFP % (hESC3 Nkx2.5eGFP/w cells; Induction Day 3) | Average GFP μm^2 (hESC3 Nkx2.5eGFP/w cells; Induction Day 3) | Average Area μm^2 (hESC3 Nkx2.5eGFP/w cells; Induction Day 3) | further results
1 | Cc1cccc(-c2nc(-c3ccc4ccccc4c3)[nH]c2-c2ccncc2)c1 [IM-01, 4-(2-(naphthalen-2-yl)-4(5)-(m-tolyl)-1H-imidazol-5(4)-yl)pyridine] | – | – | – | – | – | – | inhibition at 1 µM (CK1δ): 5%; inhibition at 1 µM (CK1ϵ): 6%; IC50 (p38α MAPK): 98 ± 11 nM
2 | Fc1c(-c2nc(-c3cccc(C(F)(F)F)c3)c(-c3ccncc3)[nH]2)ccc2ccccc12 [IM-02, 4-(2-(1-fluoronaphthalen-2-yl)-4(5)-(3-(trifluoromethyl)phenyl)-1H-imidazol-5(4)-yl)pyridine] | – | – | – | – | – | – | CK1δ inhibition at 1 μM (CK1δ): No inhibition at 1 μM; CK1ϵ inhibition at 1 μM (CK1ϵ): No inhibition at 1 μM; IC50 (p38α MAPK): 2660 ± 466 nM
3 | Cc1cccc(-c2nc(-c3ccc4ccccc4c3F)[nH]c2C2=CCOCC2)c1 [IM-03, 5(4)-(3,6-dihydro-2H-pyran-4-yl)-2-(1-fluoronaphthalen-2-yl)-4(5)-(m-tolyl)-1H-imidazole] | – | – | – | – | – | – | CK1δ inhibition at 1 μM (CK1δ): No inhibition at 1 μM; CK1ϵ inhibition at 1 μM (CK1ϵ): No inhibition at 1 μM; IC50 (p38α MAPK): 262 ± 73 nM
4 | Cc1cccc(-c2nc(-c3ccc4ccccc4c3F)[nH]c2-c2ccncc2)c1 [IM-04] | – | – | – | – | – | – | IC50 (CK1δ; Table 3, read-out: IC50 CK1δ): 490 nM; IC50 (CK1δ; read-out: CK1δ IC50 ± SEM): 490 ± 66 nM; IC50 (CK1ϵ; Table 3, read-out: IC50 Ck1ε): 277 nM; IC50 (CK1ϵ; read-out: CK1ϵ IC50 ± SEM): 277 ± 40 nM; IC50 (p38α MAPK): 20 ± 7 nM
5 | Cc1cccc(-c2nc(-c3ccccc3F)[nH]c2C2=CCOCC2)c1 [IM-06, 5(4)-(3,6-dihydro-2H-pyran-4-yl)-2-(2-fluorophenyl)-4(5)-(m-tolyl)-1H-imidazole] | – | – | – | – | – | – | inhibition at 1 µM (CK1δ): 3%; CK1ϵ inhibition at 1 μM (CK1ϵ): No inhibition at 1 μM; IC50 (p38α MAPK): 90 ± 20 nM
6 | O=C(Nc1cccc2cccnc12)c1ccc(N2C(=O)[C@@H]3[C@H](C2=O)[C@@H]2C=C[C@H]3C2)cc1 [IWR-1, reference compound] | 41.3% | 308.9 μm^2 | 763.0 μm^2 | 51.1% | 426.3 μm^2 | 831.4 μm^2 | –
7 | CCc1nc(-c2cccc(C)c2)c(-c2ccnc(NC(=O)c3ccccc3)c2)s1 [TAK 715, reference compound] | – | – | – | – | – | – | IC50 (CK1ϵ; Table 3, read-out: IC50 Ck1ε): 107 nM
8 | Fc1ccc(-c2nc(-c3ccccc3)[nH]c2-c2ccncc2)cc1 [ZQX-14, 4-[4(5)-(4-fluorophenyl)-2-phenyl-1H-imidazol-5(4)-yl]pyridine] | 42.4% | 335.6 μm^2 | 810.7 μm^2 | 5.9% | 91.6 μm^2 | 1474.4 μm^2 | –
9 | Fc1ccc(-c2nc(-c3c(Cl)cccc3Cl)[nH]c2-c2ccncc2)cc1 [ZQX-15, 4-[2-(2,6-dichlorophenyl)-4(5)-(4-fluorophenyl)-1H-imidazol-5(4)-yl]pyridine] | 0.0% | 0.0 μm^2 | 129.4 μm^2 | 0.0% | 0.0 μm^2 | 384.0 μm^2 | –
10 | COc1ccccc1-c1nc(-c2ccc(F)cc2)c(-c2ccncc2)[nH]1 [ZQX-16, 4-[2-(2-methoxyphenyl)-4(5)-(4-fluorophenyl)-1H-imidazol-5(4)-yl]pyridine] | 32.8% | 184.7 μm^2 | 576.1 μm^2 | 14.5% | 125.6 μm^2 | 950.3 μm^2 | –
11 | Fc1ccc(-c2nc(-c3ccccc3Cl)[nH]c2-c2ccncc2)cc1 [ZQX-17, 4-[2-(2-chlorophenyl)-4(5)-(4-fluorophenyl)-1H-imidazol-5(4)-yl]pyridine] | 30.4% | 183.0 μm^2 | 586.7 μm^2 | 24.6% | 232.7 μm^2 | 971.6 μm^2 | –
12 | COc1cccc(OC)c1-c1nc(-c2ccc(F)cc2)c(-c2ccncc2)[nH]1 [ZQX-18, 4-[2-(2,6-dimethoxyphenyl)-4(5)-(4-fluorophenyl)-1H-imidazol-5(4)-yl]pyridine] | 27.5% | 207.3 μm^2 | 579.4 μm^2 | 15.4% | 143.4 μm^2 | 1065.1 μm^2 | –
13 | Fc1ccc(-c2nc(-c3c(F)cccc3Cl)[nH]c2-c2ccncc2)cc1 [ZQX-19, 4-[2-(2-chloro-6-fluorophenyl)-4(5)-(4-fluorophenyl)-1H-imidazol-5(4)-yl]pyridine] | 2.4% | 46.4 μm^2 | 903.3 μm^2 | 32.7% | 511.6 μm^2 | 1616.9 μm^2 | Cardiogenic properties (hESC3 Nkx2.5eGFP/w cells): higher cardiogenic properties as SB203580 and IWP-2
14 | COc1cccc(F)c1-c1nc(-c2ccc(F)cc2)c(-c2ccncc2)[nH]1 [ZQX-20, 4-[2-(2-fluoro-6-methoxyphenyl)-4(5)-(4-fluorophenyl)-1H-imidazol-5(4)-yl]pyridine] | 26.0% | 286.8 μm^2 | 1145.3 μm^2 | 37.3% | 331.1 μm^2 | 996.2 μm^2 | Cardiogenic properties (hESC3 Nkx2.5eGFP/w cells): higher cardiogenic properties as SB203580 and IWP-2
15 | Fc1ccc(-c2nc(-c3c(F)cccc3Br)[nH]c2-c2ccncc2)cc1 [ZQX-21, 4-[2-(2-bromo-6-fluorophenyl)-4(5)-(4-fluorophenyl)-1H-imidazol-5(4)-yl]pyridine] | 0.0% | 0.0 μm^2 | 1383.8 μm^2 | 3.4% | 16.9 μm^2 | 974.3 μm^2 | –
16 | Fc1ccc(-c2nc(-c3ccccc3Br)[nH]c2-c2ccncc2)cc1 [ZQX-22, 4-[2-(2-bromophenyl)-4(5)-(4-fluorophenyl)-1H-imidazol-5(4)-yl]pyridine] | 26.2% | 166.5 μm^2 | 623.0 μm^2 | 24.4% | 284.4 μm^2 | 1165.0 μm^2 | –
17 | O=[N+]([O-])c1cccc(Cl)c1-c1nc(-c2ccc(F)cc2)c(-c2ccncc2)[nH]1 [ZQX-25, 4-[2-(2-chloro-6-nitrophenyl)-4(5)-(4-fluorophenyl)-1H-imidazol-5(4)-yl]pyridine] | 0.0% | 0.0 μm^2 | 544.3 μm^2 | 15.6% | 163.6 μm^2 | 1105.4 μm^2 | –
18 | COc1cc(O)c(-c2nc(-c3ccc(F)cc3)c(-c3ccncc3)[nH]2)c(OC)c1 [ZQX-26, 2-[4(5)-(4-fluorophenyl)-5(4)-(pyridin-4-yl)-1H-imidazol-2-yl]-3,5-dimethoxyphenol] | 30.9% | 233.9 μm^2 | 757.8 μm^2 | 8.3% | 88.2 μm^2 | 1152.7 μm^2 | –
19 | O=[N+]([O-])c1ccccc1-c1nc(-c2ccc(F)cc2)c(-c2ccncc2)[nH]1 [ZQX-27, 4-[4(5)-(4-fluorophenyl)-2-(2-nitrophenyl)-1H-imidazol-5(4)-yl]pyridine] | 15.1% | 258.6 μm^2 | 1469.4 μm^2 | 3.4% | 57.9 μm^2 | 1758.3 μm^2 | –
20 | Cc1cccc(C)c1-c1nc(-c2ccc(F)cc2)c(-c2ccncc2)[nH]1 [ZQX-28, 4-[2-(2,6-dimethylphenyl)-4(5)-(4-fluorophenyl)-1H-imidazol-5(4)-yl]pyridine] | 0.0% | 0.0 μm^2 | 302.4 μm^2 | 2.1% | 6.1 μm^2 | 271.7 μm^2 | –
21 | Cc1ccccc1-c1nc(-c2ccc(F)cc2)c(-c2ccncc2)[nH]1 [ZQX-29, 4-[4(5)-(4-fluorophenyl)-2-(2-methylphenyl)-1H-imidazol-5(4)-yl]pyridine] | 28.6% | 277.1 μm^2 | 876.4 μm^2 | 2.7% | 39.9 μm^2 | 1296.6 μm^2 | –
22 | Fc1ccc(-c2nc(-c3c(F)cccc3I)[nH]c2-c2ccncc2)cc1 [ZQX-30, 4-[2-(2-fluoro-6-iodophenyl)-4(5)-(4-fluorophenyl)-1H-imidazol-5(4)-yl]pyridine] | 4.6% | 60.9 μm^2 | 1361.8 μm^2 | 12.6% | 128.3 μm^2 | 1142.4 μm^2 | –
23 | Nc1ccccc1-c1nc(-c2ccc(F)cc2)c(-c2ccncc2)[nH]1 [ZQX-31, 4-[2-(2-aminophenyl)-4(5)-(4-fluorophenyl)-1H-imidazol-5(4)-yl]pyridine] | 28.9% | 258.3 μm^2 | 891.2 μm^2 | 5.1% | 96.0 μm^2 | 1662.3 μm^2 | –
24 | COc1ccc([N+](=O)[O-])cc1-c1nc(-c2ccc(F)cc2)c(-c2ccncc2)[nH]1 [ZQX-32, 4-[2-(2-methoxy-5-nitrophenyl)-4(5)-(4-fluorophenyl)-1H-imidazol-5(4)-yl]pyridine] | 32.8% | 157.6 μm^2 | 483.6 μm^2 | 4.6% | 41.0 μm^2 | 790.4 μm^2 | –
